# Measured values: patent US9284283B2, “Macrocyclic compounds for modulating IL-17” (ENSEMBLE THERAPEUTICS CORPORATION, priority 2012, dated 2016)
# Molecular target: T1, biotinylated human IL-17 (binding to IL17R/Fc) (Homo sapiens, UniProt Q16552)
# T1 construct: purchased R&D Systems 317-ILB (IL-17, biotinylated); 177-IR (IL17R/Fc)
# T1 sequence (Q16552 20-155 limits assumed): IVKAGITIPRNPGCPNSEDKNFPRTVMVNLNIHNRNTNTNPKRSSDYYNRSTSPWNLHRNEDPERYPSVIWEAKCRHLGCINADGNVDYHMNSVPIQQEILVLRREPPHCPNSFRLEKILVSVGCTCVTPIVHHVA
# Test: IL-17 competition ELISA II (captured IL17R/Fc, biotinylated IL-17)
# Experimental: In this version, a high binding 96-well plate (Costar #9018) was coated with 20 nM of goat anti-human IgG (KPL 01-10-02) in PBS, 100 μL/well, for 30 min at 37° C. followed by 5 min at 4° C. The plate was then washed in PBST (PBS/0.05% Tween-20) on a plate washer, (BioTek ELx450) then blocked with protein-free blocking buffer (Thermo Scientific #37573) in 250 μL/well for 30 min on a shaker at room temperature, and then washed again. IL17R/Fc (R&D Systems #177-IR; 10 nM in PBST, 100 μL/well) was then added to all wells. The plate was then incubated for 30 minutes at room temperature on the shaker.
# While the receptor capture step was underway, compound dilutions were prepared in PBST to a concentration of 1 μM in 1.5 mL tubes. After the receptor capture step, the plate was washed and 50 μL PBST was added to the wells in row B down to row H. Then, 62.5 μL of the 1 μM compound dilutions were added to the wells of row A. From row A, 12.5 μL of the compound solution was removed and added to row B with mixing and this process of 5-fold dilutions was continued, by row, to row G. One of the wells in row A received only PBST (62.5 μL) and this dilution series served as the no competitor control. Then, going up from row G to row A, 50 μL of b-IL-17 (biotinylated human IL-17, R&D Systems #317-ILB; 20 nM) was added to all wells. Row H received 50 μL of PBST and served as the blank row, i.e., no compound and no b-IL-17. The plate was then incubated for 30 minutes at room temperature on the shaker.
# After the wash, 100 μL Streptavidin-Horseradish Peroxidase (SA-HRP) (KPL #14-30-00) at 25 ng/mL in PBST was added to each well in the plate and the plate incubated for 30 minutes at room temperature followed by wash and 100 μL SureBlue™ TMB (KPL #52-00-03). After sufficient color development (approx 3-6 minutes), the reaction was fixed by the addition of 100 μL/well 0.5 N HCl and absorbance was measured at 450 nm on a BioTek Synergy 2 plate reader. The absorbances of ‘no competitor’ control and blank control should not exceed 1.5 A.U. and 0.06 A.U., respectively.
# Data was processed using BioAssay Enterprise v10.1.4 (CambridgeSoft) software. Linear OD λ450 were plotted against log concentration (x) and fitted to a 4-parameter logistic equation. IC50 was calculated using positive ‘no competitor’ control data as an upper limit and blank control as a lower limit in each assay.
row,SMILES,IC50 [µM]
1,O=C1CC2(CCCC2)CC(=O)N[C@H](Cc2ccc(NC(=O)[C@@H](NC(=O)c3ccncc3)C3CCCCC3)cc2)C(=O)N[C@H](Cc2ccccn2)C(=O)NCCCCCN1 [Compound 436],0.1 to 1
2,O=C1CNC(=O)[C@@H](Cc2ccc(-n3c(C(F)(F)F)nc(Cc4ccccc4Cl)c3OC(=O)C(F)(F)F)cc2)NC(=O)CC2(CCCC2)CC(=O)NCCCCCN1 [Compound 440],0.1 to 1
3,CN1CCCC/C=C/CNC(=O)[C@@H](Cc2ccc(NC(=O)[C@@H](NC(=O)c3cccnc3)C3CCCCC3)cc2)NC(=O)CC2(CCCC2)CC1=O [Compound 448],0.1 to 1
4,O=C1CNC(=O)[C@@H](Cc2ccc(NC(=O)[C@@H](NC(=O)c3cnc4ccccc4c3)C3CCCCC3)cc2)NC(=O)CC2(CCCC2)CC(=O)NCCCCCN1 [Compound 449],0.1 to 1
5,O=C1CC2(CCCC2)CC(=O)N[C@H](Cc2ccc(NC(=O)[C@H](Cc3ccccc3Cl)NC(=O)c3cccnc3)cc2)C(=O)N[C@@H](CO)C(=O)NCCCC[C@@H](C(=O)O)N1 [Compound 451],< 0.1
6,O=C1CNC(=O)[C@H](Cc2ccc(NC(=O)[C@@H](Cc3ccccc3Cl)NC(=O)Cc3ccccc3)cc2)NC(=O)CC2(CCCC2)CC(=O)NCCCCCN1 [Compound 452],1 to 10
7,O=C1CNC(=O)[C@H](Cc2ccc(NC(=O)[C@@H](Cc3ccccc3Cl)NC(=O)Cc3ccccc3)cc2)NC(=O)CC2(CCCC2)CC(=O)N[C@@H](C(=O)O)CCCCN1 [Compound 454],1 to 10
8,CC(=O)N[C@@H](Cc1ccccc1Cl)C(=O)Nc1ccc(C[C@H]2NC(=O)CC3(CCCC3)CC(=O)N[C@H](C(=O)O)CCCCNC2=O)cc1 [Compound 456],0.1 to 1
9,O=C1CC2(CCCC2)CC(=O)N[C@H](Cc2ccc(NC(=O)[C@@H](NC(=O)c3cccnc3)C3CCCCC3)cc2)C(=O)NCC#CCCCCCN1 [Compound 458],1 to 10
10,COC(=O)[C@@H]1CCCCNC(=O)CNC(=O)[C@@H](Cc2ccc(NC(=O)[C@H](Cc3ccccc3Cl)NC(=O)NCc3ccccc3)cc2)NC(=O)CC2(CCCC2)CC(=O)N1 [Compound 459],< 0.1
11,O=C1CC2(CCCC2)CC(=O)N[C@H](Cc2ccc(NC(=O)[C@H](Cc3ccccc3Cl)NC(=O)Cc3ccc(F)cc3)cc2)C(=O)NCCCC[C@@H](C(=O)O)N1 [Compound 460],< 0.1
12,O=C1CC2(CCCC2)CC(=O)N[C@H](Cc2ccc(NC(=O)[C@H](Cc3ccccc3Cl)NC(=O)Cc3cccc(O)c3)cc2)C(=O)NCCCC[C@@H](C(=O)O)N1 [Compound 461],< 0.1
13,CN1CCCCCNC(=O)[C@@H](C(C)(C)C)NC(=O)[C@@H](Cc2ccc(NC(=O)[C@H](Cc3ccccc3Cl)NC(=O)Cc3cccc(O)c3)cc2)NC(=O)CC2(CCCC2)CC1=O [Compound 462],< 0.1

# Now from value to compound:
row,IC50 [µM],SMILES
1,< 0.1,CN1CCNCCNC(=O)CC2(CCCC2)CC(=O)N[C@H](Cc2ccc(NC(=O)[C@H](Cc3ccccc3Cl)NC(=O)Cc3ccccc3)cc2)C(=O)N[C@H](Cc2ccccc2)C1=O [Compound 433]
2,< 0.1,O=C1CC2(CCCC2)CC(=O)N[C@H](Cc2ccc(NC(=O)[C@H](Cc3ccccc3Cl)NC(=O)Cc3ccc(F)cc3)cc2)C(=O)N[C@H](Cc2ccccn2)C(=O)NCCCCCN1 [Compound 435]
3,< 0.1,O=C(Cc1ccccc1)N[C@@H](Cc1ccccc1Cl)C(=O)Nc1ccc(C[C@H]2NC(=O)CC3(CCCC3)CC(=O)OCCNCCNC(=O)[C@@H](Cc3ccccc3)NC2=O)cc1 [Compound 444]
4,< 0.1,CN1CCNCCOC(=O)CC2(CCCC2)CC(=O)N[C@H](Cc2ccc(NC(=O)[C@H](Cc3ccccc3Cl)NC(=O)Cc3ccccc3)cc2)C(=O)N[C@H](Cc2ccccc2)C1=O [Compound 445]
5,< 0.1,CN1CCCC/C=C/CNC(=O)[C@@H](Cc2ccc(NC(=O)[C@H](Cc3ccccc3Cl)NC(=O)Cc3ccc(F)cc3)cc2)NC(=O)CC2(CCCC2)CC1=O [Compound 447]
6,< 0.1,O=C1CNC(=O)[C@@H](Cc2ccc(NC(=O)[C@@H](NC(=O)c3cncc4ccccc34)C3CCCCC3)cc2)NC(=O)CC2(CCCC2)CC(=O)NCCCCCN1 [Compound 450]
